# Test results reported in US8871681B2, “Herbicidal compositions comprising 4-amino-3-chloro-5-fluoro-6-(4-chloro-2-fluoro-3-methoxyphenyl) pyridine-2-carboxylic acid or a derivative thereof and certain sulfonylureas” (Dow AgroSciences LLC, priority 2012, dated 2014).
# How the values were obtained:
# [1] = system: ISCRU (Ischaemum rugosum, saramollagrass); experiment: Postemergence foliar-applied weed control, direct seeded rice, greenhouse (Example I); format: in vivo, Ischaemum rugosum Salisb.
# Description: Seeds or nutlets of the desired test plant species were planted in a soil matrix prepared by mixing a loam or sandy loam soil (e.g., 28.6 percent silt, 18.8 percent clay, and 52.6 percent sand, with a pH of about 5.8 and an organic matter content of about 1.8 percent) and calcareous grit in an 80 to 20 ratio. The soil matrix was contained in plastic pots with a volume of 1 quart and a surface area of 83.6 square centimeters (cm^2). When required to ensure good germination and healthy plants, a fungicide treatment and/or other chemical or physical treatment was applied. The plants were grown for 8-22 days in a greenhouse with an approximate 14 h photoperiod which was maintained at about 29° C. during the day and 26° C. during the night. Nutrients (Peters Excel® 15-5-15 5-Ca 2-Mg and iron chelate) were applied in the irrigation solution as needed and water was added on a regular basis. Supplemental lighting was provided with overhead metal halide 1000-Watt lamps as necessary. The plants were employed for testing when they reached the first through fourth true leaf stage.
# Treatments consisted of the acid or esters of 4-amino-3-chloro-5-fluoro-6-(4-chloro-2-fluoro-3-methoxy-phenyl)pyridine-2-carboxylic acid (Compound A), each formulated as an SC, and various herbicidal components alone and in combination. Forms of compound A were applied on an acid equivalent basis.
# Other herbicidal components were applied on an active ingredient basis and included acetolactate synthase (ALS)-inhibiting herbicides (sulfonylurea chemical class) azimsulfuron formulated as Gulliver®, bensulfuron-methyl formulated as Londax® 60DF, cyclosulfamuron (technical material), ethoxysulfuron formulated as Sunrice® 15 WDG, flazasulfuron formulated as Katana®, flucetosulfuron formulated as Sukedachi® 1KG G, foramsulfuron formulated as Option®, imazosulfuron formulated as Brazzos® WG, iodosulfuron-methyl-sodium formulated as Hussar®, metsulfuron-methyl formulated as Lorate®, nicosulfuron formulated as Accent®, orthosulfamuron formulated as Strada® WG, primisulfuron-methyl (technical material), propyrisulfuron formulated as Zeta One®, rimsulfuron formulated as Matrix® WG, sulfometuron-methyl formulated as Oust®, and trifloxysulfuron-sodium formulated as Monument® 75WG.
# Treatment requirements were calculated based upon the rates being tested, the concentration of active ingredient or acid equivalent in the formulation, and a 12 mL application volume at a rate of 187 L/ha.
# For treatments comprised of formulated compounds, measured amounts of compounds were placed individually in 25 mL glass vials and diluted in a volume of 1.25% (v/v) Agri-Dex® crop oil concentrated to obtain 12× stock solutions. […] Application solutions were prepared by adding an appropriate amount of each stock solution (e.g., 1 mL) and diluted to the appropriate final concentrations with the addition of 10 mL of an aqueous mixture of 1.25% (v/v) crop oil concentrate so that the final spray solutions contained 1.25+/−0.05% (v/v) Agrcrop oil concentrate.
# For treatments comprised of formulated and technical compounds, weighed amounts of the technical materials were placed individually in 25 mL glass vials and dissolved in a volume of 97:3 v/v acetone/DMSO to obtain 12× stock solutions, and measured amounts of the formulated compounds were placed individually in 25 mL glass vials and diluted in a volume of 1.25% (v/v) crop oil concentrate to obtain 12× stock solutions. […] Application solutions were prepared by adding an appropriate amount of each stock solution (e.g., 1 mL) and diluted to the appropriate final concentrations with the addition of an appropriate amount of an aqueous mixture of 1.5% (v/v) crop oil concentrate so that the final spray solutions contained 1.25% (v/v) crop oil concentrate. […]
# [2] = system: MATCH (Chamomilla chamomilla, scented mayweed); experiment: Post-emergence foliar-applied weed control in cereal crops, greenhouse (Example III); format: in vivo, Chamomilla chamomilla (L.) Rydb.
# Method: Seeds of the desired test plant species were planted in Sun Gro MetroMix® 306 planting mixture, which typically has a pH of 6.0 to 6.8 and an organic matter content of about 30 percent, in plastic pots with a surface area of 103.2 square centimeters (cm^2). When required to ensure good germination and healthy plants, a fungicide treatment and/or other chemical or physical treatment was applied. The plants were grown for 7-36 days in a greenhouse with an approximate 14 hour photoperiod which was maintained at about 18° C. during the day and 17° C. during the night. Nutrients and water were added on a regular basis and supplemental lighting was provided with overhead metal halide 1000-Watt lamps as necessary. The plants were employed for testing when they reached the second or third true leaf stage.
# Treatments consisted of the benzyl ester of 4-amino-3-chloro-5-fluoro-6-(4-chloro-2-fluoro-3-methoxy-phenyl)pyridine-2-carboxylic acid (Compound A), formulated as an SC (suspension concentrate), and a second cereal herbicide alone and in combination.
# Measured aliquot of benzyl ester of 4-amino-3-chloro-5-fluoro-6-(4-chloro-2-fluoro-3-methoxy-phenyl)pyridine-2-carboxylic acid (Compound A) was placed in 25 milliliter (mL) glass vials and diluted in a volume of 1.25% (v/v) Agri-dex crop oil concentrated to obtain stock solutions. Compound requirements are based upon a 12 mL application volume at a rate of 187 liters per hectare (L/ha). Spray solutions of the second cereal herbicide and experimental compound mixtures were prepared by adding the stock solutions to the appropriate amount of dilution solution to form 12 mL spray solution with active ingredients in two- and three-way combinations. Formulated compounds were applied to the plant material with an overhead Mandel track sprayer equipped with an 8002E nozzle calibrated to deliver 187 L/ha over an application area of 0.503 square meters (m^2) at a spray height of 18 inches (46 cm) above average plant canopy. Control plants were sprayed in the same manner with the solvent blank.
# The treated plants and control plants were placed in a greenhouse as described above and watered by sub-irrigation to prevent wash-off of the test compounds. After 20-22 days, the condition of the test plants as compared with that of the control plants was determined visually and scored on a scale of 0 to 100 percent where 0 corresponds to no injury and 100 corresponds to complete kill.
# Colby's equation was used to determine the herbicidal effects expected from the mixtures (Colby, S. R. 1967. Calculation of the synergistic and antagonistic response of herbicide combinations. Weeds 15:20-22.).
# The following equation was used to calculate the expected activity of mixtures containing two active ingredients, A and B: Expected=A+B−(A×B/100)
# [3] = system: CIRAR (Cirsium arvense, Canada thistle); experiment: as above; format: in vivo, Cirsium arvense (L.) Scop.
# In short: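 Greenhouse plants at the second or third true leaf stage (14 hour photoperiod, about 18/17 °C) were track-sprayed at 187 L/ha with Compound A SC, a second cereal herbicide, or their combinations, using 1.25% v/v crop oil concentrate. Injury was scored visually at 20-22 days against solvent-blank controls on a 0–100% scale. Expected mixture effects were calculated with Colby's equation.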
# [4] = system: DIGSA (Digitaria sanguinalis, large crabgrass); experiment: Postemergence foliar-applied weed control, direct seeded rice, greenhouse (Example I); format: in vivo, Digitaria sanguinalis (L.) Scop.; conditions: for Visual Weed Control (%) - 21 DAA DIGSA Obs: Table 27, foliar-applied
# In short: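 Greenhouse-grown plants in loam/sandy loam–grit soil (14 h photoperiod, ~29/26 °C) were sprayed postemergence at the first to fourth true leaf stage. Compound A (acid equivalent basis) and ALS-inhibiting sulfonylureas (active ingredient basis) were applied alone and in combination in 1.25% (v/v) crop oil concentrate at 187 L/ha by track sprayer; controls received solvent blank.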
structure (smiles),measurement,setting,value
"COC(=O)c1ccccc1CS(=O)(=O)NC(=O)Nc1nc(OC)cc(OC)n1 [Bensulfuron-methyl, methyl 2-[[[[[(4,6-dimethoxy-2-pyrimidinyl)amino]carbonyl]amino]sulfonyl]methyl]benzoate, reference compound]",Visual Weed Control (%) Obs,"[1]; 20 DAA, 70 gai/ha",30%
"COC(=O)c1ccccc1S(=O)(=O)NC(=O)Nc1nc(C)nc(OC)n1 [Metsulfuron-methyl, methyl 2-[[[[(4-methoxy-6-methyl-1,3,5-triazin-2-yl)amino]carbonyl]amino]sulfonyl]benzoate, reference compound]",Weed Control MATCH Obs,"[2]; Table 56, after 20-22 days, 1.1 gai/ha alone",89%
same,pest or weed control at 1.1 g/ha,"[3]; Cirsium arvense, post-emergence, Table 56, foliar-applied, after 20-22 days, 1.1 gai/ha alone, read-out: Weed Control CIRAR Obs",65%
COc1c(Cl)ccc(-c2nc(C(=O)OCc3ccccc3)c(Cl)c(N)c2F)c1F [Compound A Benzyl Ester],Visual Weed Control (%) Obs,"[1]; 20 DAA, 6 gae/ha",30%
same,Visual Weed Control (%) Obs,"[1]; 20 DAA, 24 gae/ha",35%
same,Visual Weed Control (%) Obs,"[1]; 21 DAA, 8 gae/ha",20%
same,Visual Weed Control (%) Obs,"[1]; 21 DAA, 16 gae/ha",0%
same,Weed Control MATCH Obs,"[2]; Table 54, after 20-22 days, 8.75 gai/ha alone",20%
same,Weed Control MATCH Obs,"[2]; Table 55, after 20-22 days, 8.75 gai/ha alone",20%
same,Weed Control MATCH Obs,"[2]; Table 56, after 20-22 days, 8.75 gai/ha alone",20%
same,Weed Control MATCH Obs,"[2]; Table 57, after 20-22 days, 8.75 gai/ha Compound A Benzyl Ester alone",20%
same,Weed Control MATCH Obs,"[2]; Table 59 (cereal), after 20-22 days, 8.75 gai/ha alone",20%
same,pest or weed control at 8.75 g/ha,"[3]; Cirsium arvense, post-emergence, read-out: Weed Control CIRAR Obs",40%
same,Weed Control CIRAR Obs,"[3]; Table 53, foliar-applied, after 20-22 days, 8.75 gai/ha alone",40%
same,Weed Control CIRAR Obs,"[3]; Table 54, foliar-applied, after 20-22 days, 8.75 gai/ha alone",40%
same,Weed Control CIRAR Obs,"[3]; Table 55, foliar-applied, after 20-22 days, 8.75 gai/ha alone",40%
same,Weed Control CIRAR Obs,"[3]; Table 56, foliar-applied, after 20-22 days, 8.75 gai/ha alone",40%
same,Weed Control CIRAR Obs,"[3]; Table 57, foliar-applied, after 20-22 days, 8.75 gai/ha Compound A Benzyl Ester alone",40%
same,Weed Control CIRAR Obs,"[3]; Table 58 (cereal), foliar-applied, after 20-22 days, 8.75 gai/ha alone",40%
same,Weed Control CIRAR Obs,"[3]; Table 59 (cereal), foliar-applied, after 20-22 days, 8.75 gai/ha alone",40%
same,Visual Weed Control (%) Obs,"[4]; 20 DAA, 4.38 gae/ha",20%
same,Visual Weed Control (%) Obs,"[4]; 20 DAA, 8.75 gae/ha",15%
same,Visual Weed Control (%) Obs,"[4]; 20 DAA, 17.5 gae/ha",20%
same,Visual Weed Control (%) Obs,"[4]; 22 DAA, 8 gae/ha",20%
same,Visual Weed Control (%) Obs,"[4]; 22 DAA, 16 gae/ha",20%
same,Visual Weed Control (%) Obs,"[4]; 22 DAA, 32 gae/ha",35%
same,Visual Weed Control (%) - 21 DAA DIGSA Obs,[4]; 8 gae/ha alone,25%
same,Visual Weed Control (%) - 21 DAA DIGSA Obs,[4]; 16 gae/ha alone,30%
same,Visual Weed Control (%) - 21 DAA DIGSA Obs,[4]; 32 gae/ha alone,50%
"COc1c(Cl)ccc(-c2nc(C(=O)O)c(Cl)c(N)c2F)c1F [Compound A Acid, 4-amino-3-chloro-5-fluoro-6-(4-chloro-2-fluoro-3-methoxy-phenyl)pyridine-2-carboxylic acid]",Visual Weed Control (%) Obs,"[4]; 20 DAA, 5.3 gae/ha",10%
same,Visual Weed Control (%) Obs,"[4]; 24 DAA, 17.5 gae/ha",25%
